Among the test systems are SK-OV-3 ovarian; OVCAR-3 ovarian; EKVX NSCLC; SF-268 CNS; SK-MEL-28 melanoma; OVCAR-5 ovarian; MCF7 breast; SW-620 colon; OVCAR-4 ovarian; HCT-15 colon.
What all share (assay): NCI anticancer screen, dose series, 48 h

Several values for one entry are separate records, joined by “and”; a condition that tells them apart may be missing. Equal entries are not always repeated.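 Cultured in 96-well plates, cells were exposed to test compound for 48 hours across five concentrations. Here, GI50 denotes the concentration required for 50% inhibition of growth. TGI: concentration producing complete growth inhibition.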

For `CC(C)(C)OC(=O)CN1CCNCCNCC1`, the TGI with SK-OV-3 ovarian, with OVCAR-3 ovarian, with EKVX NSCLC, with SF-268 CNS, with SK-MEL-28 melanoma and in the test on OVCAR-5 ovarian was over 100 µM each time. Besides, the TGI in the test with MCF7 breast, in the test with SW-620 colon, with OVCAR-4 ovarian and in the test on HCT-15 colon was over 100 µM throughout.
On to `COc1cc(/C=C2/SC(c3ccccc3)N(c3ccc(NC(C)=O)cc3)C2=O)cc(OC)c1OC` (stereo not given), for which the TGI with SK-OV-3 ovarian, in the test with OVCAR-3 ovarian, in the test on EKVX NSCLC, in the test on SF-268 CNS, in the test with SK-MEL-28 melanoma and with OVCAR-5 ovarian was over 100 µM throughout. The TGI in the test with MCF7 breast, in the test with SW-620 colon, in the test on OVCAR-4 ovarian and in the test on HCT-15 colon was over 100 µM each time.
For the molecule `O=c1[nH]c(=O)n(C2CC(O)C(CO)O2)cc1I` (stereo not given), the TGI with SK-OV-3 ovarian, in the test with OVCAR-3 ovarian, in the test with EKVX NSCLC, with SF-268 CNS, with SK-MEL-28 melanoma and in the test with OVCAR-5 ovarian was over 100 µM throughout. Moreover, the TGI with MCF7 breast, with SW-620 colon, in the test with OVCAR-4 ovarian and in the test on HCT-15 colon was over 100 µM throughout.
Turning to `O=c1cc(CNC2CCCC2)[nH]c(=O)[nH]1`, the TGI with SK-OV-3 ovarian, in the test with OVCAR-3 ovarian, with EKVX NSCLC, in the test on SF-268 CNS, in the test on SK-MEL-28 melanoma and in the test on OVCAR-5 ovarian was over 100 µM throughout. For the same molecule, the TGI in the test on MCF7 breast, in the test on SW-620 colon, with OVCAR-4 ovarian and in the test with HCT-15 colon was over 100 µM each time.
In the case of `C=C(C)[C@@H]1CC[C@]2(C(=O)O)CC[C@]3(C)[C@H](CC[C@@H]4[C@@]5(C)CC(=O)C(C)(C)[C@@H]5CC[C@]43C)[C@@H]12`, the TGI is over 25 µM with SK-OV-3 ovarian; 21.4 µM in the test on OVCAR-3 ovarian; over 25 µM in the test with EKVX NSCLC; over 25 µM in the test on SF-268 CNS; over 25 µM in the test with SK-MEL-28 melanoma; over 25 µM in the test on OVCAR-5 ovarian. In addition, the TGI in the test on MCF7 breast, with SW-620 colon, with OVCAR-4 ovarian and in the test with HCT-15 colon was over 25 µM each time.
For `C=C(C)C(=O)CC[C@@H](C)[C@H]1[C@@H](OC2OC(CO)C(O)C(O)C2O)C[C@@]2(C)[C@@H]3C[C@H](O)C4C(C)(C)[C@@H](OC5OC(CO)C(O)C(O)C5O)CC[C@@]45C[C@@]35CC[C@]12C` (stereo not given in full), the TGI in the test with SK-OV-3 ovarian, with OVCAR-3 ovarian, in the test on EKVX NSCLC, in the test on SF-268 CNS, with SK-MEL-28 melanoma and with OVCAR-5 ovarian was over 100 µM each time. Moreover, the TGI in the test on MCF7 breast, in the test on SW-620 colon, with OVCAR-4 ovarian and in the test with HCT-15 colon was over 100 µM in each case.
With `COc1cc(/C=C/C(=O)OCC23CC[C@@]4(C(=O)O)CCC(C)[C@H](C)C4C2=CCC2[C@@]4(C)CC[C@H](O)C(C)(C)C4CC[C@]23C)ccc1O` (stereo not given in full), the TGI with SK-OV-3 ovarian worked out at 83.4 µM; in the test with OVCAR-3 ovarian it was 14.3 µM; in the test on EKVX NSCLC, 33.1 µM; in the test with SF-268 CNS, 33.3 µM; in the test with SK-MEL-28 melanoma, 85.9 µM; with OVCAR-5 ovarian, 46.4 µM. The TGI in the test with MCF7 breast is 48.1 µM; with SW-620 colon, over 100 µM; with OVCAR-4 ovarian, 46.9 µM; in the test with HCT-15 colon it was 56.3 µM.
Regarding `CC(=O)NC1C(OCc2ccccc2)OC(CO)C(O)C1OCC(=O)NC(C)C(=O)NC(CCC(=O)NCCCCNc1ccc([N+](=O)[O-])c2[nH]c3ccccc3c(=O)c12)C(N)=O` (stereo not given), the TGI in the test with SK-OV-3 ovarian, in the test with OVCAR-3 ovarian, in the test on EKVX NSCLC, in the test on SF-268 CNS, with SK-MEL-28 melanoma and with OVCAR-5 ovarian was over 100 µM each time. The TGI in the test with MCF7 breast, in the test on SW-620 colon, in the test on OVCAR-4 ovarian and in the test on HCT-15 colon was over 100 µM in each case.
Consider `CCOC(=O)c1cn(-c2ccccc2)c(=S)n2c1nc1ccccc12`, for which the TGI in the test with SK-OV-3 ovarian is over 100 µM; with OVCAR-3 ovarian, over 100 µM; with EKVX NSCLC it was over 100 µM; in the test on SF-268 CNS it was 94.9 µM; in the test with SK-MEL-28 melanoma, over 73.4 µM; in the test on OVCAR-5 ovarian it was over 100 µM. The TGI in the test on MCF7 breast, in the test on SW-620 colon, in the test on OVCAR-4 ovarian and in the test on HCT-15 colon was over 100 µM in each case.
Consider `CC[n+]1cnc(N)c2c(-c3ccc(Cl)cc3)cn(-c3ccc(C)cc3)c21`, for which the TGI in the test on SK-OV-3 ovarian turned out to be 29 µM; with OVCAR-3 ovarian, 21.6 µM; with EKVX NSCLC, 30.8 µM; with SF-268 CNS, 26.7 µM; with SK-MEL-28 melanoma, 21.2 µM; in the test with OVCAR-5 ovarian, 29.7 µM. Moreover, the TGI in the test on MCF7 breast was found to be 3.35 µM; with SW-620 colon, 30.5 µM; with OVCAR-4 ovarian it was 15.6 µM; with HCT-15 colon, 32.6 µM.
For `CN(C)CCNc1ccc(C(=O)NCCCN(C)CCCNC(=O)c2ccc(NCCN(C)C)c3c(=O)c4ccccc4[nH]c23)c2[nH]c3ccccc3c(=O)c12`, the TGI is 1.3 µM with SK-OV-3 ovarian; 7.5 µM with OVCAR-3 ovarian; 3.8 µM in the test on EKVX NSCLC; 0.544 µM in the test on SF-268 CNS; 0.604 µM in the test on SK-MEL-28 melanoma; 1.1 µM in the test on OVCAR-5 ovarian. The TGI was 0.489 µM with MCF7 breast, 2.36 µM with SW-620 colon, 0.211 µM with OVCAR-4 ovarian and 38.5 µM with HCT-15 colon.
As for `CN1C/C(=C\c2cccs2)C2=NC(=S)NC(c3cccs3)C2C1` (stereo not given), the TGI with SK-OV-3 ovarian, with OVCAR-3 ovarian, in the test with EKVX NSCLC, in the test with SF-268 CNS, in the test with SK-MEL-28 melanoma and with OVCAR-5 ovarian was over 100 µM in each case. For the same molecule, the TGI in the test with MCF7 breast, in the test with SW-620 colon, in the test on OVCAR-4 ovarian and in the test with HCT-15 colon was over 100 µM throughout.
With `Clc1ccc(-c2ccc(-c3nnc(CCc4nnc(-c5ccc(-c6ccc(Cl)cc6)o5)o4)o3)o2)cc1`, the TGI was over 90.4 µM in the test with SK-OV-3 ovarian; over 100 µM in the test with OVCAR-3 ovarian; over 100 µM with EKVX NSCLC; over 100 µM with SF-268 CNS; over 100 µM with SK-MEL-28 melanoma; over 100 µM in the test with OVCAR-5 ovarian. In addition, the TGI with MCF7 breast, in the test with SW-620 colon, in the test on OVCAR-4 ovarian and in the test on HCT-15 colon was over 100 µM throughout.
On to `CCOC(=O)c1cccc(NC(=O)CCl)c1`, for which the TGI in the test on SK-OV-3 ovarian turned out to be 15.3 µM; in the test on OVCAR-3 ovarian, 4.44 µM; with EKVX NSCLC, 8.9 µM; in the test on SF-268 CNS it was 5.69 µM; in the test with SK-MEL-28 melanoma, 49.7 µM; in the test with OVCAR-5 ovarian, 16.9 µM. The TGI in the test on MCF7 breast was determined as 6.81 µM; in the test on SW-620 colon, 16.5 µM; in the test on OVCAR-4 ovarian, 8.31 µM; in the test on HCT-15 colon, 12.4 µM.
Regarding `O=C1NC(N/N=C\C(O)C(O)C(O)CO)=N/C1=C/c1ccccc1` (stereo not given), the TGI in the test with SK-OV-3 ovarian, in the test on OVCAR-3 ovarian, in the test on EKVX NSCLC, in the test on SF-268 CNS, with SK-MEL-28 melanoma and in the test on OVCAR-5 ovarian was over 100 µM in each case. The TGI was over 100 µM in the test with MCF7 breast; over 100 µM in the test with SW-620 colon; > 100 µM and 79.8 µM with OVCAR-4 ovarian; over 100 µM in the test on HCT-15 colon. Also, the GI50 is > 100 µM and 47.6 µM with OVCAR-3 ovarian; > 100 µM and 25.6 µM with SK-MEL-28 melanoma; > 100 µM and 34 µM in the test with SW-620 colon; 84.1 µM and 23.4 µM in the test with OVCAR-4 ovarian; > 100 µM and 35.5 µM with HCT-15 colon.
For the molecule `COC(=O)[C@H](Cc1ccccc1)NC(=O)c1ccc(CNC(=O)/C=C/c2ccc(-c3ccccc3)cc2)cc1`, the TGI in the test with SK-OV-3 ovarian, in the test with OVCAR-3 ovarian, in the test on EKVX NSCLC, in the test with SF-268 CNS, in the test on SK-MEL-28 melanoma and in the test on OVCAR-5 ovarian was over 100 µM throughout. The TGI with MCF7 breast, in the test on SW-620 colon, in the test on OVCAR-4 ovarian and in the test with HCT-15 colon was over 100 µM each time.
Consider `CCC(C)[C@H](NC(=O)[C@H](Cc1ccccc1)NC(=O)N(CC)c1ccccc1)C(=O)N[C@@H](CC(C)C)C(=O)OC` (stereo not given in full), for which the TGI in the test with SK-OV-3 ovarian, with OVCAR-3 ovarian, in the test on EKVX NSCLC, in the test with SF-268 CNS, with SK-MEL-28 melanoma and in the test on OVCAR-5 ovarian was over 100 µM each time. The TGI in the test with MCF7 breast, with SW-620 colon, with OVCAR-4 ovarian and with HCT-15 colon was over 100 µM each time.
As for `O=S(=O)(Oc1ccc2oc3ccccc3c2c1-c1c(OS(=O)(=O)C(F)(F)F)ccc2oc3ccccc3c12)C(F)(F)F`, the TGI with SK-OV-3 ovarian, in the test with OVCAR-3 ovarian, with EKVX NSCLC, with SF-268 CNS, in the test on SK-MEL-28 melanoma and with OVCAR-5 ovarian was over 100 µM throughout. Further, the TGI with MCF7 breast, in the test with SW-620 colon, with OVCAR-4 ovarian and in the test with HCT-15 colon was over 100 µM throughout.

Source of the values: PubChem BioAssay (NCI).
